The test system of data set [1] is OATP1B1 and OATP1B3 (not distinguished). It is filed as cell-based, human. To be noted: human, CHO cells stably expressing OATP1B1 or OATP1B3, pH 7.4, probe FMTX, 5 µM.
For data set [2], the system named is OATP1B1 and OATP1B3. Format: cell-based, human. To be noted: primary screen of FMTX uptake by OATP1B1 or OATP1B3.
Data set [3] concerns OATP1B1. To be noted: read-out: Ki, inhibition of fexofenadine transport, OATP1B1; cited from earlier work.
The test system of data set [4] is OATP1B3. The conditions noted are these: read-out: Ki, inhibition of fexofenadine transport, OATP1B3; cited from earlier work.
Data set [5] has as its system OATP1B1. The conditions noted are these: read-out: Ki, inhibition of BSP transport, OATP1B1; cited from earlier work.
In data set [6] the test system is OATP1B3. The conditions noted are these: read-out: Ki, inhibition of BSP transport, OATP1B3; cited from earlier work.
In data set [7] the test system is OATP1B1. The conditions noted are these: read-out: IC50, inhibition of bosentan transport, OATP1B1; ref Treiber et al. 5; cited from earlier work.
Data set [8] relates to OATP1B3. The conditions noted are these: read-out: IC50, inhibition of bosentan transport, OATP1B3; ref Treiber et al. 5; cited from earlier work.
Data set [9] has as its system OATP1B1. The conditions noted are these: read-out: IC50, inhibition of Ro 48-5033 uptake, OATP1B1; ref Treiber et al. 5; cited from earlier work.
The subject of data set [10] is OATP1B3. To be noted: read-out: IC50, inhibition of Ro 48-5033 uptake, OATP1B3; ref Treiber et al. 5; cited from earlier work.
In data set [11] the test system is OATP1B1. The conditions noted are these: cited from earlier work.
The subject of data set [12] is OATP1B3. The conditions noted are these: concentrations up to 10 μM; cited from earlier work.

The values that follow come from paper PMC2864424 (Current Chemical Genomics, 2010).

Read-outs that look alike come from different tables or passages of the source.

In general, IC50 refers to the point on the concentration scale where inhibition reaches its midpoint. The term Ki denotes the dissociation constant of the complex between target and ligand, obtained from inhibition or displacement. `CO[C@H]1/C=C/O[C@@]2(C)Oc3c(C)c(O)c4c(O)c(c(/C=N/N5CCN(C)CC5)c(O)c4c3C2=O)NC(=O)/C(C)=C\C=C\[C@H](C)[C@H](O)[C@@H](C)[C@@H](O)[C@@H](C)[C@H](OC(C)=O)[C@@H]1C` [Rifampicin] returned an IC50 at 30 min in data set [1] of 1300 to 1500 nM. In addition, the “Prestwick library screening result” value in data set [2] is “strongest inhibitors”. The Ki was 500 nM in data set [3], 1500 nM in [4], 17000 nM in data set [5] and 5000 nM in data set [6]. Besides, the IC50 was 3200 nM in data set [7], 1600 nM in data set [8], around 50000 nM in data set [9] and 800 nM in data set [10].

Take `CC1(C)C(/C=C/C=C/C=C/C=C2\N(CCCCS(=O)(=O)O)c3ccc4ccccc4c3C2(C)C)=[N+](CCCCS(=O)(=O)[O-])c2ccc3ccccc3c21` [indocyanine green]: the “effect on OATP1B1-mediated estradiol-17β-glucuronide transport” value in data set [11] is “specific inhibitor”. Moreover, in data set [12], the “effect on OATP1B3-mediated estradiol-17β-glucuronide transport” value is recorded as “not affecting”.
